Measurements published in patent US20020137929A1, “1 - (3-heterocyclylphenyl) isothiourea, -isourea, -guanidine and -amidine herbicidal agents” (Intellectual Property Department, BASF Aktiengesellschaft, priority 1998, published 2002).

How the values were obtained:
[1] = system: CHEAL (Lambsquarters, Common); assay: Postemergence herbicidal evaluation; type: in vivo, Chenopodium album; conditions: for CHEAL herbicidal rating: postemergence
Method in brief: (§1)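 First, seedlings were raised for around two weeks. Next, test material in 50/50 acetone/water containing 0.5% TWEEN 20 was sprayed through a nozzle at 40 psi, equivalent to about 0.0156–0.500 kg/ha. Finally, after 4–5 weeks in the greenhouse, plants were rated 0–9.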

[2] = system: IPOHE (Morningglory, Ivyleaf); assay: Postemergence herbicidal evaluation; type: in vivo, Ipomoea hederacea; conditions: for IPOHE herbicidal rating: postemergence
Method in brief: as §1

GALAP (Galium) = assay: Preemergence herbicidal evaluation; type: in vivo, Galium aparine; conditions: rated 4-5 weeks after treatment; for GALAP rating: preemergence, 0-9 scale
Method in brief: (§2)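 Greenhouse preemergence test: seed-soil mix sown on ~1 inch soil; aqueous acetone spray at equivalent of ~0.0156–0.500 kg/ha; greenhouse-held and watered; scored 0–9 visually at 4–5 weeks.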

ECHCG (Barnyardgrass) = assay: Preemergence herbicidal evaluation; type: in vivo, Echinochloa crus-galli; conditions: rated 4-5 weeks after treatment; for ECHCG rating: preemergence, 0-9 scale
Method in brief: as §2

[3] = system: GLXMAW (Soybean, Williams); assay: Preemergence herbicidal evaluation; type: in vivo, Glycine max, (L.) Merr. cv Williams; conditions: rated 4-5 weeks after treatment; for GLXMAW rating: preemergence, 0-9 scale
Method in brief: as §2

ORYSAT (Rice, Tebonnet) [4] = assay: Rice tolerance to post-transplant applications, flooded paddy conditions (Table III); type: in vivo, Oryza sativa, (L.) Tebonnet
Method in brief: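 Two ten-day-old Tebonnet seedlings transplanted into flooded silt loam (water 1.5 to 3 cm above soil); three days later the water surface was treated with compound in aqueous/acetone 50/50 at about 0.0313 to 0.500 kg/ha. Visual 0-9 injury rating versus control after three to four weeks in greenhouse.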

MOOVA (Monochoria) = assay: Postemergence weed control under flooded paddy conditions; type: in vivo, Monochoria vaginalis; conditions: postemergence weeds
Method in brief: (§3)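 Containers holding 3–5 cm weeds and rice at 1.5–2.5 leaves are flooded to 1.5–3 cm above soil. Compound in 50/50 v/v aqueous/acetone is then added directly to the water, about 0.0313–0.500 kg/ha. Plants are kept in the greenhouse and rated 0–9 visually at 3–4 weeks.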

ORYSAT (Rice, Tebonnet) [5] = assay: Rice tolerance to post-transplant applications, flooded paddy conditions (Table IV); type: in vivo, Oryza sativa, (L.) Tebonnet
Method in brief: as §3

[6] = Rate 0.0313 kg/ha, rated 3 to 4 weeks after treatment
[7] = Rate 0.0625 kg/ha, rated 3 to 4 weeks after treatment
[8] = Rate 0.1250 kg/ha, rated 3 to 4 weeks after treatment
[9] = Rate 0.2500 kg/ha, rated 3 to 4 weeks after treatment

In the case of `CN1C(=O)C(CC(=O)O)SC1=Nc1cc(-n2c(=O)cc(C(F)(F)F)n(C)c2=O)c(F)cc1Cl` (centres unmarked) [Compound 63, 2-{{2-Chloro-5-[3,6-dihydro-3-methyl-2,6-dioxo-4-(trifluoromethyl)-1(2H)-pyrimidinyl]-4-fluoro-phenyl}imino}-3-methyl-4-oxo-5-thiazolidineacetic acid], the “Postemergence herbicidal rating CHEAL” value ([1]; Rate 0.0158 kg/ha) is reported as 9.0, the “Postemergence herbicidal rating CHEAL” value ([1]; Rate 0.0315 kg/ha) is reported as 9.0 and the “Postemergence herbicidal rating CHEAL” value ([1]; Rate 0.0630 kg/ha) is reported as 7.0. For the same compound, the “Postemergence herbicidal rating IPOHE” value ([2]; Rate 0.0158 kg/ha) was 9.0, the “Postemergence herbicidal rating IPOHE” value ([2]; Rate 0.0315 kg/ha) was 9.0 and the “Postemergence herbicidal rating IPOHE” value ([2]; Rate 0.0630 kg/ha) was 9.0. The “Preemergence herbicidal rating GALAP” value (GALAP (Galium); rate 0.0156 kg/ha) was 0.0, the “Preemergence herbicidal rating GALAP” value (GALAP (Galium); rate 0.0313 kg/ha) was 0.0 and the “Preemergence herbicidal rating GALAP” value (GALAP (Galium); rate 0.0625 kg/ha) was 0.0. The “Preemergence herbicidal rating GALAP” value (GALAP (Galium); rate 0.1250 kg/ha) was 9.0, the “Preemergence herbicidal rating GALAP” value (GALAP (Galium); rate 0.2500 kg/ha) was 9.0 and the “Preemergence herbicidal rating ECHCG” value (ECHCG (Barnyardgrass); rate 0.0156 kg/ha) was 0.0. The “Preemergence herbicidal rating ECHCG” value (ECHCG (Barnyardgrass); rate 0.0313 kg/ha) was 0.0, the “Preemergence herbicidal rating ECHCG” value (ECHCG (Barnyardgrass); rate 0.0625 kg/ha) was 1.0 and the “Preemergence herbicidal rating ECHCG” value (ECHCG (Barnyardgrass); rate 0.1250 kg/ha) was 4.0. The “Preemergence herbicidal rating ECHCG” value (ECHCG (Barnyardgrass); rate 0.2500 kg/ha) was 9.0, the “Preemergence herbicidal rating GLXMAW” value ([3]; rate 0.0156 kg/ha) was 0.0 and the “Preemergence herbicidal rating GLXMAW” value ([3]; rate 0.0313 kg/ha) was 1.0. The “Preemergence herbicidal rating GLXMAW” value ([3]; rate 0.0625 kg/ha) was 4.0, the “Preemergence herbicidal rating GLXMAW” value ([3]; rate 0.1250 kg/ha) was 6.0 and the “Preemergence herbicidal rating GLXMAW” value ([3]; rate 0.2500 kg/ha) was 7.0. For the same compound, the “ORYSAT herbicidal effect rating (rice tolerance)” value (shortened to “ORYSAT herbicidal effect rating”) (ORYSAT (Rice, Tebonnet) [4]; in vivo) was 3.0, the “Herbicidal rating MOOVA” value (MOOVA (Monochoria); [6]) was 9.0 and the “Herbicidal rating MOOVA” value (MOOVA (Monochoria); [7]) was 9.0. For the same compound, the “Herbicidal rating MOOVA” value (MOOVA (Monochoria); [8]) was 9.0, the “Herbicidal rating MOOVA” value (MOOVA (Monochoria); [9]) was 9.0 and the “Herbicidal rating ORYSAT (rice tolerance)” value (shortened to “Herbicidal rating ORYSAT”) (ORYSAT (Rice, Tebonnet) [5]; in vivo) was 3.0.

Work on `CCOC(=O)CN1C(=O)C(=Cc2ccccc2)SC1=Nc1cc(-n2c(=O)cc(C(F)(F)F)n(C)c2=O)c(F)cc1Cl` [Compound 19, Ethyl 5-benzylidene-2-{{2-chloro-5-[3,6-dihydro-3-methyl-2,6-dioxo-4-(trifluoromethyl)-1(2H)-pyrimidinyl]-4-fluorophenyl}imino}-4-oxo-3-thiazolidineacetate] yielded a CHEAL herbicidal rating ([1]; rate 0.0158 kg/ha) of 3.0, a CHEAL herbicidal rating ([1]; rate 0.0315 kg/ha) of 7.0 and a CHEAL herbicidal rating ([1]; rate 0.0630 kg/ha) of 9.0. The IPOHE herbicidal rating ([2]; rate 0.0158 kg/ha) was 2.0, the IPOHE herbicidal rating ([2]; rate 0.0315 kg/ha) was 9.0 and the IPOHE herbicidal rating ([2]; rate 0.0630 kg/ha) was 5.0. For the same compound, the “GALAP preemergence herbicidal rating” value (GALAP (Galium); rate 0.1250 kg/ha) was 0.0, the “GALAP preemergence herbicidal rating” value (GALAP (Galium); rate 0.2500 kg/ha) was 0.0 and the “ECHCG preemergence herbicidal rating” value (ECHCG (Barnyardgrass); rate 0.1250 kg/ha) was 0.0. For the same compound, the “ECHCG preemergence herbicidal rating” value (ECHCG (Barnyardgrass); rate 0.2500 kg/ha) was 0.0, the “GLXMAW preemergence herbicidal rating” value ([3]; rate 0.1250 kg/ha) was 0.0 and the “GLXMAW preemergence herbicidal rating” value ([3]; rate 0.2500 kg/ha) was 0.0. The “Herbicidal rating ORYSAT” value (ORYSAT (Rice, Tebonnet) [4]; in vivo) was 3.0, the “Herbicidal rating MOOVA” value (MOOVA (Monochoria); rate 0.1160 kg/ha, 3-4 weeks after treatment) was 9.0 and the “Herbicidal rating MOOVA” value (MOOVA (Monochoria); rate 0.2310 kg/ha, 3-4 weeks after treatment) was 9.0. For the same compound, the “Herbicidal rating MOOVA” value (MOOVA (Monochoria); rate 0.4630 kg/ha, 3-4 weeks after treatment) was 9.0 and the “Herbicidal rating ORYSAT” value (ORYSAT (Rice, Tebonnet) [5]; in vivo) was 3.0.

With `CN1C(=O)C(CC(=O)OCCF)SC1=Nc1cc(-n2c(=O)cc(C(F)(F)F)n(C)c2=O)c(F)cc1Cl` (centres unmarked) [Compound 93, 2-Fluoroethyl 2-{{2-chloro-5-[3,6-dihydro-3-methyl-2,6-dioxo-4-(trifluoromethyl)-1(2H)-pyrimidinyl]-4-fluorophenyl}imino}-3-methyl-4-oxo-5-thiazolidineacetate] the CHEAL herbicidal rating ([1]; rate 0.0158 kg/ha) was 4.0, the CHEAL herbicidal rating ([1]; rate 0.0315 kg/ha) was 4.0 and the CHEAL herbicidal rating ([1]; rate 0.0630 kg/ha) was 9.0. For the same compound, the IPOHE herbicidal rating ([2]; rate 0.0158 kg/ha) was 9.0, the IPOHE herbicidal rating ([2]; rate 0.0315 kg/ha) was 9.0 and the IPOHE herbicidal rating ([2]; rate 0.0630 kg/ha) was 9.0. It also gave a GALAP rating (GALAP (Galium); 0.0313 kg/ha) of 0.0, a GALAP rating (GALAP (Galium); 0.0625 kg/ha) of 0.0 and a GALAP rating (GALAP (Galium); 0.1250 kg/ha) of 9.0. For the same compound, the GALAP rating (GALAP (Galium); 0.2500 kg/ha) was 9.0, the ECHCG rating (ECHCG (Barnyardgrass); 0.0313 kg/ha) was 0.0 and the ECHCG rating (ECHCG (Barnyardgrass); 0.0625 kg/ha) was 0.0. It also gave an ECHCG rating (ECHCG (Barnyardgrass); 0.1250 kg/ha) of 0.0, an ECHCG rating (ECHCG (Barnyardgrass); 0.2500 kg/ha) of 0.0 and a GLXMAW rating ([3]; 0.0313 kg/ha) of 0.0. It also gave a GLXMAW rating ([3]; 0.0625 kg/ha) of 0.0, a GLXMAW rating ([3]; 0.1250 kg/ha) of 4.0 and a GLXMAW rating ([3]; 0.2500 kg/ha) of 8.0. The “ORYSAT herbicidal effect rating” value (ORYSAT (Rice, Tebonnet) [4]; 0.0313 kg/ha, post-transplant rice, flooded paddy, rated 3-4 weeks after treatment) was 0.0, the “ORYSAT herbicidal effect rating” value (ORYSAT (Rice, Tebonnet) [4]; 0.0625 kg/ha, post-transplant rice, flooded paddy, rated 3-4 weeks after treatment) was 0.0 and the “ORYSAT herbicidal effect rating” value (ORYSAT (Rice, Tebonnet) [4]; 0.1250 kg/ha, post-transplant rice, flooded paddy, rated 3-4 weeks after treatment) was 0.0. The “ORYSAT herbicidal effect rating” value (ORYSAT (Rice, Tebonnet) [4]; 0.2500 kg/ha, post-transplant rice, flooded paddy, rated 3-4 weeks after treatment) was 3.0, the “Herbicidal rating MOOVA” value (MOOVA (Monochoria); [6]) was 9.0 and the “Herbicidal rating MOOVA” value (MOOVA (Monochoria); [7]) was 9.0. For the same compound, the “Herbicidal rating MOOVA” value (MOOVA (Monochoria); [8]) was 9.0, the “Herbicidal rating MOOVA” value (MOOVA (Monochoria); [9]) was 9.0 and the “Herbicidal rating ORYSAT” value (ORYSAT (Rice, Tebonnet) [5]; Rate 0.0313 kg/ha, flooded paddy, post-transplant rice, rated 3 to 4 weeks after treatment) was 0.0. The “Herbicidal rating ORYSAT” value (ORYSAT (Rice, Tebonnet) [5]; Rate 0.0625 kg/ha, flooded paddy, post-transplant rice, rated 3 to 4 weeks after treatment) was 0.0, the “Herbicidal rating ORYSAT” value (ORYSAT (Rice, Tebonnet) [5]; Rate 0.1250 kg/ha, flooded paddy, post-transplant rice, rated 3 to 4 weeks after treatment) was 0.0 and the “Herbicidal rating ORYSAT” value (ORYSAT (Rice, Tebonnet) [5]; Rate 0.2500 kg/ha, flooded paddy, post-transplant rice, rated 3 to 4 weeks after treatment) was 3.0.
